Reference: US20170008928A1, “NOVEL PEPTIDES AND PEPTIDE DERIVATIVES AND USES THEREOF” (Novo Nordisk A/S, priority 2015, published 2017)
Read-outs that look alike come from different tables or passages of the source. Values belong to the molecule of their own block, whether it stands above or below them. Starred links: 1 amine or outer side, 2 acyl side, 3 side chain; linkers in the order of their positions; H or OH if unused. Non-standard residues stand in square brackets, D forms with d. Residues, ends and D or L forms follow the SMILES beside them. No end group written: not given here. *: point of attachment. C20 diacid = O=C(O)CCCCCCCCCCCCCCCCCCC(=O)*; sY = N[C@@H](Cc1ccc(OS(=O)(=O)O)cc1)C(=O)O; C18 diacid = O=C(O)CCCCCCCCCCCCCCCCC(=O)*; γGlu = O=C(O)[C@H](CCC(=O)[*:2])N[*:1]; 1Nal = N[C@@H](Cc1cccc2ccccc12)C(=O)O; C14 diacid = O=C(O)CCCCCCCCCCCCC(=O)*; NMeF = CN[C@@H](Cc1ccccc1)C(=O)O; dNMeD = CN[C@H](CC(=O)O)C(=O)O; Nle = CCCC[C@H](N)C(=O)O; AEEA = NCCOCCOCC(=O)O

How the values were obtained:
[1] = molecular target: T1, human cholecystokinin-1 receptor (human, UniProt P32238 1-428); assay: cell-based or functional assay
T1 sequence (looked up): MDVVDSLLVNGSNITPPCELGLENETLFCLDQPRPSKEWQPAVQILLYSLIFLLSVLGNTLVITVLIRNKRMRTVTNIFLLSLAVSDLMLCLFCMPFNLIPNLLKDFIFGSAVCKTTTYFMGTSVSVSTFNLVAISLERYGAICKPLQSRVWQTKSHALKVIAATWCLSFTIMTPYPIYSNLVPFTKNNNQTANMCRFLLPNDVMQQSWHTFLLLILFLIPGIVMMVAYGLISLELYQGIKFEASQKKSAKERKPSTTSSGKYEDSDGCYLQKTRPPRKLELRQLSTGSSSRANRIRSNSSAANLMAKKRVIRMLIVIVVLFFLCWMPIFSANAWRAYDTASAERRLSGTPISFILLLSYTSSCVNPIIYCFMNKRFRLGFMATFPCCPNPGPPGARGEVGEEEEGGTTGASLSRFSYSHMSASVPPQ

[2] = molecular target: T2, human cholecystokinin-2 receptor (human, UniProt P32239 1-447); assay: cell-based or functional assay
T2 sequence (looked up): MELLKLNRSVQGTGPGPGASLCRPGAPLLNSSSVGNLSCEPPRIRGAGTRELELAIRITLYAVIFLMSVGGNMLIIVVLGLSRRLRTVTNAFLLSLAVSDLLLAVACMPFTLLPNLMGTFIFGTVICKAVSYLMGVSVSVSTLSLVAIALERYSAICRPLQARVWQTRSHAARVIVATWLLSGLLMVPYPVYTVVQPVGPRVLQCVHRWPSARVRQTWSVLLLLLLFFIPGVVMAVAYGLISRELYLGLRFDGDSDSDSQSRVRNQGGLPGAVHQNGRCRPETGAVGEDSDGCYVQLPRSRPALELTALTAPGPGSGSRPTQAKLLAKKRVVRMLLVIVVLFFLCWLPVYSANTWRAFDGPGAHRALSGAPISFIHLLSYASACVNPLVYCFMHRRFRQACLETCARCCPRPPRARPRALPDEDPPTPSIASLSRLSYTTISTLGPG

[3] = molecular target: T3, human cholecystokinin-1 receptor (CCK-1R) (Homo sapiens, UniProt P32238); assay: In vitro potency on CCK-1R, whole cell functional assay (IP1 accumulation, IP-One HTRF); type: cell-based; details: for CCK-1R selectivity (EC50 (CCK-2R)/EC50 (CCK-1R)): ratio of functional EC50 values, >1 = preference for CCK-1R
T3 construct: host or cells: 1321-N1 cells
T3 sequence (P32238 1-428): T1 sequence (looked up)

[4] = molecular target: T3, human cholecystokinin-1 receptor (CCK-1R); assay: In vitro receptor binding to CCK-1R, SPA displacement of [125I]-CCK-8s from plasma membranes; details: for CCK-1R binding selectivity (IC50 (CCK-2R)/IC50 (CCK-1R)): ratio of binding IC50 values, >1 = preference for CCK-1R
[5] = molecular target: T4, human cholecystokinin-2 receptor (CCK-2R) (Homo sapiens, UniProt P32239); assay: In vitro potency on CCK-2R, whole cell functional assay (IP1 accumulation, IP-One HTRF); type: cell-based
T4 construct: host or cells: 1321-N1 cells (plasma membranes prepared by Evotec AG Hamburg)
T4 sequence (P32239 1-447): T2 sequence (looked up)

[6] = molecular target: T4, human cholecystokinin-2 receptor (CCK-2R); assay: In vitro receptor binding to CCK-2R, SPA displacement of [125I]-CCK-8s from plasma membranes
[7] = molecular target: T2, human cholecystokinin-2 receptor; assay: SPA competition vs [125I]-CCK-8s, membranes
Method: CCK receptor binding assays were performed in 96-well Optiplates (Cat #6005290, PerkinElmer, Waltham, Mass., USA) in a total volume of 200 μl per well.
The plates were sealed and incubated in the dark at +22° C. for 2 hours on a IKA MTS plate shaker (IKA-Werke D-79219 Staufen) set at 300 rpm and thereafter centrifuged at 1500 rpm for 10 minutes in a Heraeus Multifuge 3s centrifuge. SPA bead light emission was measured in a TopCount NXT (PerkinElmer) for 2 min/well after a delay of 60 min.

[8] = 1321-N1 cells stably expressing CCK-1R, IP1 accumulation, average of min. three replicates, read-out: EC50 (CCK-1R)
[9] = 1321-N1 cells stably expressing CCK-2R, IP1 accumulation, highest dose tested 1×10^6 pM, read-out: EC50 (CCK-2R)
[10] = displacement of [125I]-CCK-8s, plasma membranes of 1321-N1 cells expressing CCK-2R, highest dose tested 1×10^7 pM, read-out: IC50 (CCK-2R)
[11] = displacement of [125I]-CCK-8s, plasma membranes of 1321-N1 cells expressing CCK-1R, read-out: IC50 (CCK-1R)

Molecule: 2-[2-[2-[[2-[2-[2-[[(4S)-4-Carboxy-4-(17-carboxyheptadecanoylamino)butanoyl]amino]ethoxy]ethoxy]acetyl]amino]ethoxy]ethoxy]acetyl-Asp-sTyr-Nle-Gly-Trp-Nle-DMeAsp-1Nal-amide (peptide)
EC50 (CCK-1R) [1]: 0.37 nM
EC50 (CCK-2R) [2]: 180 nM

Molecule: CC(C)C[C@H](NC(=O)[C@H](Cc1ccc(OS(=O)(=O)O)cc1)NC(=O)[C@@H](N)CC(=O)O)C(=O)NCC(=O)N[C@@H](Cc1c[nH]c2ccccc12)C(=O)N[C@@H](C)C(=O)N(C)[C@H](CC(=O)O)C(=O)N(C)[C@@H](Cc1ccccc1)C(N)=O [Example 84, Asp-sTyr-Leu-Gly-Trp-Ala-DMeAsp-MePhe-amide] (H-D[sY]LGWA[dNMeD][NMeF]-NH2)
EC50 [3]: 0.22 nM
IC50 [4]: 0.53 nM
EC50 [5]: > 1000 nM
IC50 [6]: > 10000 nM

B1: 2-[2-[2-[[2-[2-[2-[[(4S)-4-Carboxy-4-(13-carboxytridecanoylamino)butanoyl]amino]ethoxy]ethoxy]acetyl]amino]ethoxy]ethoxy]acetyl-Glu-sTyr-Leu-Gly-Trp-Nle-DMeAsp- … (peptide)
peptide: {C14 diacid-γGlu-AEEA-AEEA}-E[sY]LGW[Nle][dNMeD][NMeF]-NH2
SMILES: CCCC[C@H](NC(=O)[C@H](Cc1c[nH]c2ccccc12)NC(=O)CNC(=O)[C@H](CC(C)C)NC(=O)[C@H](Cc1ccc(OS(=O)(=O)O)cc1)NC(=O)[C@H](CCC(=O)O)NC(=O)COCCOCCNC(=O)COCCOCCNC(=O)CC[C@H](NC(=O)CCCCCCCCCCCCC(=O)O)C(=O)O)C(=O)N(C)[C@H](CC(=O)O)C(=O)N(C)[C@@H](Cc1ccccc1)C(N)=O
notes: X = Nle or Nal
EC50 (CCK-2R) [2]: 150 nM
IC50 [7]: 1200 nM

Molecule: {C18 diacid-γGlu-AEEA-AEEA}-D[sY]PGW[Nle][dNMeD][NMeF]-NH2 (X = Nle or Nal)
EC50 (CCK-2R) [2]: 300 nM
IC50 [7]: 5200 nM

B2: 2-[2-[2-[[2-[2-[2-[[(4S)-4-Carboxy-4-(19-carboxynonadecanoylamino)butanoyl]amino]ethoxy]ethoxy]acetyl]amino]ethoxy]ethoxy]acetyl-Glu-sTyr-Leu-Gly-Trp-Nle-DMeAsp … (peptide)
peptide: {C20 diacid-γGlu-AEEA-AEEA}-E[sY]LGW[Nle][dNMeD][NMeF]-NH2
SMILES: CCCC[C@H](NC(=O)[C@H](Cc1c[nH]c2ccccc12)NC(=O)CNC(=O)[C@H](CC(C)C)NC(=O)[C@H](Cc1ccc(OS(=O)(=O)O)cc1)NC(=O)[C@H](CCC(=O)O)NC(=O)COCCOCCNC(=O)COCCOCCNC(=O)CC[C@H](NC(=O)CCCCCCCCCCCCCCCCCCC(=O)O)C(=O)O)C(=O)N(C)[C@H](CC(=O)O)C(=O)N(C)[C@@H](Cc1ccccc1)C(N)=O
notes: X = Nle or Nal
EC50 (CCK-2R) [2]: 32 nM
IC50 [7]: 430 nM

Molecule: D[sY]RGW[Nle][dNMeD][NMeF]-NH2 (X = Nle or Nal) [Asp-sTyr-Arg-Gly-Trp-Nle-DMeAsp-MePhe-amide]
EC50 (CCK-2R) [2]: 910 nM
IC50 [7]: 1500 nM

Second part, the molecule after the results:

EC50 [3, 8]: 0.22 nM
CCK-1R selectivity (EC50 (CCK-2R)/EC50 (CCK-1R)) [3]: very selective
CCK-1R binding selectivity (IC50 (CCK-2R)/IC50 (CCK-1R)) [4]: very selective
EC50 [5, 9]: > 1000 nM
IC50 [6, 10]: > 10000 nM
Molecule: CC(C)C[C@H](NC(=O)[C@H](Cc1ccc(OS(=O)(=O)O)cc1)NC(=O)[C@H](CCC(=O)O)NC(=O)COCCOCCNC(=O)COCCOCCNC(=O)CC[C@H](NC(=O)CCCCCCCCCCCCCCCCC(=O)O)C(=O)O)C(=O)NCC(=O)N[C@@H](Cc1c[nH]c2ccccc12)C(=O)N[C@@H](CCC(N)=O)C(=O)N(C)[C@H](CC(=O)O)C(=O)N(C)[C@@H](Cc1ccccc1)C(N)=O [Example 42, 2-[2-[2-[[2-[2-[2-[[(4S)-4-Carboxy-4-(17-carboxyheptadecanoylamino)butanoyl]amino]ethoxy]ethoxy]acetyl]amino]ethoxy]ethoxy]acetyl-Glu-sTyr-Leu-Gly-Trp-Gln-DMeAsp-MePhe-amide]

EC50 [3, 8]: 0.14 nM
CCK-1R selectivity (EC50 (CCK-2R)/EC50 (CCK-1R)) [3]: 2100
IC50 [4, 11]: 0.027 nM
CCK-1R binding selectivity (IC50 (CCK-2R)/IC50 (CCK-1R)) [4]: 84000
EC50 [5, 9]: 290 nM
IC50 [6, 10]: 2300 nM
Molecule: CCCC[C@H](NC(=O)[C@H](Cc1ccc(OS(=O)(=O)O)cc1)NC(=O)[C@@H](N)CC(=O)O)C(=O)NCC(=O)N[C@@H](Cc1c[nH]c2ccccc12)C(=O)N[C@@H](CCCC)C(=O)N(C)[C@H](CC(=O)O)C(=O)N[C@@H](Cc1cccc2ccccc12)C(N)=O [Example 54, Asp-sTyr-Nle-Gly-Trp-Nle-DMeAsp-1Nal-amide] (H-D[sY][Nle]GW[Nle][dNMeD][1Nal]-NH2)

EC50 [3, 8]: 0.22 nM
IC50 [4, 11]: 0.029 nM
CCK-1R binding selectivity (IC50 (CCK-2R)/IC50 (CCK-1R)) [4]: 32000
EC50 [5, 9]: > 1000 nM
IC50 [6, 10]: 920 nM
Molecule: CCCC[C@H](NC(=O)[C@H](Cc1c[nH]c2ccccc12)NC(=O)CNC(=O)[C@H](Cc1ccccc1)NC(=O)[C@H](Cc1ccc(OS(=O)(=O)O)cc1)NC(=O)[C@@H](N)CC(=O)O)C(=O)N(C)[C@H](CC(=O)O)C(=O)N(C)[C@@H](Cc1ccccc1)C(N)=O [Example 78, Asp-sTyr-Phe-Gly-Trp-Nle-DMeAsp-MePhe-amide] (H-D[sY]FGW[Nle][dNMeD][NMeF]-NH2)
